Source: ChEMBL document CHEMBL3045223, “Synthesis, nematicidal and antimicrobial properties of Bis-[4-methoxy-3-[3-(4-fluorophenyl)-6-(4-methylphenyl)-2(aryl)-tetrahydro-2H-pyrazolo[3,4-d]thiazol-5-yl]phenyl]methanes” (2009)
≈ marks a conversion by molar mass, not a printed value.

Legend:
Format in all cases: functional
[1] = test system: Chromobacterium violaceum; experiment: Antibacterial activity against Chromobacterium violaceum MTCC 2656 assessed as growth arrest at 37 degC for 24 hr; conditions: MTCC 2656, 24 h
[2] = test system: Klebsiella aerogenes; experiment: Antibacterial activity against Enterobacter aerogenes MTCC 39 assessed as growth arrest at 37 degC for 24 hr; conditions: MTCC 39, 24 h
[3] = test system: Pseudomonas aeruginosa; experiment: Antibacterial activity against Pseudomonas aeruginosa MTCC 741 assessed as growth arrest at 37 degC for 24 hr; conditions: MTCC 741, 24 h
[4] = test system: Staphylococcus aureus; experiment: Antibacterial activity against Staphylococcus aureus MTCC 96 assessed as growth arrest at 37 degC for 24 hr; conditions: MTCC 96, 24 h
[5] = test system: Lysinibacillus sphaericus; experiment: Antibacterial activity against Lysinibacillus sphaericus MTCC 11 assessed as growth arrest at 37 degC for 24 hr; conditions: MTCC 11, 24 h
[6] = test system: Bacillus subtilis; experiment: Antibacterial activity against Bacillus subtilis MTCC 441 assessed as growth arrest at 37 degC for 24 hr; conditions: MTCC 441, 24 h
[7] = test system: Chromobacterium violaceum; experiment: Antibacterial activity against Chromobacterium violaceum MTCC 2656 assessed as inhibition zones at 100 ug/disk at 37 degC for 24 hr; conditions: MTCC 2656, 24 h, read-out: IZ
[8] = test system: Klebsiella aerogenes; experiment: Antibacterial activity against Enterobacter aerogenes MTCC 39 assessed as inhibition zones at 100 ug/disk at 37 degC for 24 hr; conditions: MTCC 39, 24 h, read-out: IZ
[9] = test system: Pseudomonas aeruginosa; experiment: Antibacterial activity against Pseudomonas aeruginosa MTCC 741 assessed as inhibition zones at 100 ug/disk at 37 degC for 24 hr; conditions: MTCC 741, 24 h, read-out: IZ
[10] = test system: Staphylococcus aureus; experiment: Antibacterial activity against Staphylococcus aureus MTCC 96 assessed as inhibition zones at 100 ug/disc at 37 degC for 24 hr; conditions: MTCC 96, 24 h, read-out: IZ
[11] = test system: Lysinibacillus sphaericus; experiment: Antibacterial activity against Lysinibacillus sphaericus MTCC 11 assessed as inhibition zones at 100 ug/disk at 37 degC for 24 hr; conditions: MTCC 11, 24 h, read-out: IZ
[12] = test system: Bacillus subtilis; experiment: Antibacterial activity against Bacillus subtilis MTCC 441 assessed as inhibition zones at 100 ug/disk at 37 degC for 24 hr; conditions: MTCC 441, 24 h, read-out: IZ
[13] = test system: Trichophyton mentagrophytes; experiment: Antifungal activity against Trichophyton mentagrophytes IFO 40996 assessed as growth inhibition at 37 degC for 48 hr; conditions: IFO 40996, 48 h
[14] = test system: Trichophyton rubrum; experiment: Antifungal activity against Trichophyton rubrum IFO 9185 assessed as growth inhibition at 37 degC for 48 hr; conditions: IFO 9185, 48 h
[15] = test system: Aspergillus fumigatus; experiment: Antifungal activity against Aspergillus fumigatus HIC 6094 assessed as growth inhibition at 37 degC for 48 hr; conditions: HIC 6094, 48 h
[16] = test system: Candida albicans; experiment: Antifungal activity against Candida albicans ATCC 10231 assessed as growth inhibition at 37 degC for 48 hr; conditions: ATCC 10231, 48 h
[17] = test system: Trichophyton mentagrophytes; experiment: Antifungal activity against Trichophyton mentagrophytes IFO 40996 assessed as growth inhibition at 100 ug/disc at 37 degC for 48 hr; conditions: IFO 40996, 48 h, read-out: IZ
[18] = test system: Trichophyton rubrum; experiment: Antifungal activity against Trichophyton rubrum IFO 9185 assessed as growth inhibition at 100 ug/disk at 37 degC for 48 hr; conditions: IFO 9185, 48 h, read-out: IZ
[19] = test system: Aspergillus fumigatus; experiment: Antifungal activity against Aspergillus fumigatus HIC 6094 assessed as growth inhibition at 100 ug/disc at 37 degC for 48 hr; conditions: HIC 6094, 48 h, read-out: IZ
[20] = test system: Candida albicans; experiment: Antifungal activity against Candida albicans ATCC 10231 assessed as growth inhibition at 100 ug/disk at 37 degC for 48 hr; conditions: ATCC 10231, 48 h, read-out: IZ

CN[C@@H]1[C@H](O[C@H]2[C@H](O[C@H]3[C@H](O)[C@@H](O)[C@H](N=C(N)N)[C@@H](O)[C@@H]3N=C(N)N)O[C@@H](C)[C@]2(O)C=O)O[C@@H](CO)[C@H](O)[C@H]1O [STREPTOMYCIN]
MBC [1]: 6.25 µg/mL (≈ 10.7 µM)
MIC [1]: 3.12 µg/mL (≈ 5.36 µM)
MBC [2]: 6.25 µg/mL (≈ 10.7 µM)
MIC [2]: 1.56 µg/mL (≈ 2.68 µM)
MBC [3]: 6.25 µg/mL (≈ 10.7 µM)
MIC [3]: 1.56 µg/mL (≈ 2.68 µM)
MBC [4]: 12.5 µg/mL (≈ 21.5 µM)
MIC [4]: 6.25 µg/mL (≈ 10.7 µM)
MBC [5]: 25 µg/mL (≈ 43 µM)
MIC [5]: 6.25 µg/mL (≈ 10.7 µM)
MBC [6]: 12.5 µg/mL (≈ 21.5 µM)
MIC [6]: 6.25 µg/mL (≈ 10.7 µM)
zone of inhibition at 100 µg/disc [7]: 20 mm
zone of inhibition at 100 µg/disc [8]: 25 mm
zone of inhibition at 100 µg/disc [9]: 15 mm
zone of inhibition at 100 µg/disc [10]: 41 mm
zone of inhibition at 100 µg/disc [11]: 20 mm
zone of inhibition at 100 µg/disc [12]: 30 mm

CC1(C)S[C@@H]2[C@H](NC(=O)Cc3ccccc3)C(=O)N2[C@H]1C(=O)O [PENICILLIN G]
MBC [1]: 12.5 µg/mL (≈ 37.4 µM)
MIC [1]: 12.5 µg/mL (≈ 37.4 µM)
MBC [2]: 12.5 µg/mL (≈ 37.4 µM)
MIC [2]: 6.25 µg/mL (≈ 18.7 µM)
MBC [3]: 12.5 µg/mL (≈ 37.4 µM)
MIC [3]: 6.25 µg/mL (≈ 18.7 µM)
MBC [4]: 6.25 µg/mL (≈ 18.7 µM)
MIC [4]: 1.56 µg/mL (≈ 4.67 µM)
MBC [5]: 25 µg/mL (≈ 74.8 µM)
MIC [5]: 3.12 µg/mL (≈ 9.33 µM)
MBC [6]: 6.25 µg/mL (≈ 18.7 µM)
MIC [6]: 1.56 µg/mL (≈ 4.67 µM)
zone of inhibition at 100 µg/disc [7]: 25 mm
zone of inhibition at 100 µg/disc [8]: 30 mm
zone of inhibition at 100 µg/disc [9]: 25 mm
zone of inhibition at 100 µg/disc [10]: 40 mm
zone of inhibition at 100 µg/disc [11]: 28 mm
zone of inhibition at 100 µg/disc [12]: 25 mm

C[C@@H]1[C@H](O)[C@@H](C)/C=C/C=C/C=C/C=C/C=C/C=C/C=C/[C@H](O[C@@H]2O[C@H](C)[C@@H](O)[C@H](N)[C@@H]2O)C[C@@H]2O[C@](O)(C[C@@H](O)C[C@@H](O)[C@H](O)CC[C@@H](O)C[C@@H](O)CC(=O)O[C@H]1C)C[C@H](O)[C@H]2C(=O)O [AMPHOTERICIN B]
MBC [13]: 12.5 µg/mL (≈ 13.5 µM)
MIC [13]: 3.12 µg/mL (≈ 3.38 µM)
MBC [14]: 12.5 µg/mL (≈ 13.5 µM)
MIC [14]: 3.12 µg/mL (≈ 3.38 µM)
MBC [15]: 6.25 µg/mL (≈ 6.76 µM)
MIC [15]: 3.12 µg/mL (≈ 3.38 µM)
MBC [16]: 12.5 µg/mL (≈ 13.5 µM)
MIC [16]: 6.25 µg/mL (≈ 6.76 µM)
zone of inhibition at 100 µg/disc [17]: 18 mm
zone of inhibition at 100 µg/disc [18]: 20 mm
zone of inhibition at 100 µg/disc [19]: 20 mm
zone of inhibition at 100 µg/disc [20]: 25 mm
